Measurements published in PubChem BioAssay AID2060625 (Molecular Pharmacology Branch, DTP, NCI, 2025).
pIC50: −log10 of the molar value.

System: 186277-243-T-J2-PDC spheroids with HUVEC/MSC, viability
Assay: Anticancer human tumor 186277-243-T-J2-PDC patient-derived colon adenocarcinoma cell line growth inhibition [CLK]
Conditions: for pIC50: curve of first compound; for viability, T/C: stronger effect = lower value; active = viability on the fitted dose curve at most 10% of control; inactive = the rest
Description: A high-throughput screen of multi-cell type tumor spheroids was designed to identify active combinations of […] and targeted small molecules. Complex spheroids include a stromal component modeled by human endothelial cells (HUVEC) and fibroblasts modeled by human mesenchymal stem cells (MSCs). The concentration ranges selected for each drug and investigational agent were based upon clinically achievable concentrations if the clinical Cmax of the agent was known.
Compounds. The drugs and investigational agents: cirtuvivint (SM08502; NSC835563), CC-671 (NSC850746), vemurafenib (NSC761431), tapotoclax (NSC804041), sotorasib (NSC818433), adagrasib (NSC831453), MRTX-1133 (NSC836407), BAY2416964 (NSC825713), copanlisib (NSC816437), inavolisib (NSC800729), abemaciclib (NSC768073), osimertinib (NSC779217), entinostat (NSC756642), eltanexor (KPT-8602, NSC794443), venetoclax (NSC766270), ceralasertib (NSC777638), bortezomib (NSC756655), olaparib (NSC753686), talazoparib (NSC767125), alisertib (NSC759677), peposertib (NSC802822), gemcitabine (NSC613327), 5-fluorouracil (NSC19893), SN-38 (NSC673596), oxaliplatin (NSC266046), paclitaxel (NSC125973), and doxorubicin (NSC123127), were obtained from the National Cancer Institute (NCI) Developmental Therapeutics Program Chemical Repository. The FDA-approved anticancer drug set is available from the Developmental Therapeutics Program at https://dtp.cancer.gov/organization/dscb/obtaining/available plates.htm. […] The stock solutions were prepared in dimethyl sulfoxide (DMSO, Sigma-Aldrich, St. Louis, MO, cat. D2650), except for the platinum complexes which were prepared in saline (Quality Biological, Gaithersburg, MD, cat. 114-055-101), at 800-fold the tested concentration and stored at -70 degrees C prior to their use. All drugs and investigational agents were tested over a range starting from a high concentration at or near the clinical Cmax and decreasing in half-log increments. If the clinical Cmax for an agent had not been determined, the highest concentration tested was 10 microM.
Cell Culture. All cells were maintained in an incubator at 37 degrees C and 5% CO2 with 95% humidity. The PDC lines were cultured according to standard operating procedures established by the NCI PDMR. Briefly, all PDCs were thawed and cultured in Matrigel-coated flasks prepared with a working solution of 1X Ham's F-12 nutrient mix, without supplementation (Invitrogen, Waltham, MA, cat. 11765054), 100 U/mL penicillin-streptomycin (Invitrogen, cat. 15140122), and 2.5% Matrigel (Corning Inc., Corning, NY, cat. 354248) for the first three passages. The 947758-054-R-J2-PDC line was cultured in 6B/Colon 1A media, which includes advanced DMEM/F-12 (Thermo Fisher Scientific, cat. 12634028), 10 mM HEPES (Thermo Fisher Scientific, cat. 15630080), 1X GlutaMAX supplement (Thermo Fisher Scientific, cat. 35050061), 0.1 mg/mL primocin (InvivoGen, cat. ant-pm-2), 10% defined fetal bovine serum, heat inactivated (HyClone Laboratories Inc., cat. SH30070.03HI), 1.25 mM N-Acetyl-L-cysteine (Sigma-Aldrich, cat. A9165), 10 mM nicotinamide (Sigma-Aldrich, cat. N0636), 1X B-27 supplement (Thermo Fisher Scientific, cat. 17504044), 1X N-2 supplement (Thermo Fisher Scientific, cat. 17502048), and 10 microM Y-27632 dihydrochloride (Tocris Bioscience, cat. 1254). The 876862-298-R-J1-PDC was cultured in 6E media, which includes all 6B/Colon 1A media components plus 50% L-WRN conditioned media (ATCC, cat. CRL-3276), 50 ng/mL recombinant human EGF recombinant protein (hEGF; Thermo Fisher Scientific, cat. PHG0311), 10 ng/mL recombinant human fibroblast growth factor 10 (hGFG-10; PeproTech, cat. 100-26), 1 ng/mL recombinant human fibroblast growth factor 2 (hFGF-2; PeproTech, cat. 100-18B), and 1 µM prostaglandin E2 (PGE2; Tocris, cat. 2296). The 227483-062-R1-J1-PDC line was cultured in Panc media, containing all 6E components except hFGF-2, with the addition of 500 nM SB-431542 (Selleckchem, cat. S1067) and 10 nM gastrin (Tocris, cat. 3006). […]

[1] = second compound 0.0316 µM, first compound 0.0316 µM
[2] = second compound 0.0316 µM, first compound 0.1 µM
[3] = second compound 0.0316 µM, first compound 0.316 µM
[4] = second compound 0.0316 µM, first compound 1 µM
[5] = second compound 0.0316 µM, first compound 3.16 µM
[6] = second compound 0.0316 µM, first compound 10 µM
[7] = second compound 0.1 µM, first compound 0.0316 µM
[8] = second compound 0.1 µM, first compound 0.1 µM
[9] = second compound 0.1 µM, first compound 0.316 µM
[10] = second compound 0.1 µM, first compound 1 µM
[11] = second compound 0.1 µM, first compound 3.16 µM
[12] = second compound 0.1 µM, first compound 10 µM
[13] = second compound 0.316 µM, first compound 0.0316 µM
[14] = second compound 0.316 µM, first compound 0.1 µM
[15] = second compound 0.316 µM, first compound 0.316 µM
[16] = second compound 0.316 µM, first compound 1 µM
[17] = second compound 0.316 µM, first compound 3.16 µM
[18] = second compound 0.316 µM, first compound 10 µM
[19] = second compound 1 µM, first compound 0.0316 µM
[20] = second compound 1 µM, first compound 0.1 µM
[21] = second compound 1 µM, first compound 0.316 µM
[22] = second compound 1 µM, first compound 1 µM
[23] = second compound 1 µM, first compound 3.16 µM
[24] = second compound 1 µM, first compound 10 µM
[25] = second compound 3.16 µM, first compound 0.0316 µM
[26] = second compound 3.16 µM, first compound 0.1 µM
[27] = second compound 3.16 µM, first compound 0.316 µM
[28] = second compound 3.16 µM, first compound 1 µM
[29] = second compound 3.16 µM, first compound 3.16 µM
[30] = second compound 3.16 µM, first compound 10 µM
[31] = second compound 10 µM, first compound 0.0316 µM
[32] = second compound 10 µM, first compound 0.1 µM
[33] = second compound 10 µM, first compound 0.316 µM
[34] = second compound 10 µM, first compound 1 µM
[35] = second compound 10 µM, first compound 3.16 µM
[36] = second compound 10 µM, first compound 10 µM
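Note: compound exposure lasted seven days before readout.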
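Throughout, for viability, T/C: 100% = DMSO vehicle control wells.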

C=CC(=O)N1CCN(c2nc(=O)n(-c3c(C)ccnc3C(C)C)c3nc(-c4c(O)cccc4F)c(F)cc23)C(C)C1 (centres undefined) + CN1CCN(c2cc(C(=O)Nc3cc4cc(-c5cnn(C)c5)ccc4cn3)ccn2)CC1
> 7.50: pIC50 (second compound 0.316 µM) | pIC50 (second compound 1 µM) | pIC50 (second compound 3.16 µM) | pIC50 (second compound 10 µM)
active: viability, T/C [19] 0.72% | viability, T/C [20] 1.4% | viability, T/C [21] 0.59% | viability, T/C [22] 1.74% | viability, T/C [23] 1.4% | viability, T/C [24] 1.65% | viability, T/C [25] 0.98% | viability, T/C [26] 1.19% | viability, T/C [27] 1.22% | viability, T/C [28] 2.38% | viability, T/C [29] 2.84% | viability, T/C [30] 1.94% | viability, T/C [31] 0.63% | viability, T/C [32] 0.71% | viability, T/C [33] 1.36% | viability, T/C [34] 1.03% | viability, T/C [35] 2.23% | viability, T/C [36] 1.12%
< 5.00: pIC50 (second compound 0.0316 µM) | pIC50 (second compound 0.1 µM)
inactive: viability, T/C [1] 97.2% | viability, T/C [2] 108% | viability, T/C [3] 102% | viability, T/C [4] 98.8% | viability, T/C [5] 102% | viability, T/C [6] 86.6% | viability, T/C [7] 102% | viability, T/C [8] 81% | viability, T/C [9] 90.5% | viability, T/C [10] 84.1% | viability, T/C [11] 86.2% | viability, T/C [12] 72.4% | viability, T/C [13] 29.7% | viability, T/C [14] 28.8% | viability, T/C [15] 29.5% | viability, T/C [16] 24.8% | viability, T/C [17] 30.8% | viability, T/C [18] 11%

COC1C=CCC(C)C(C)S(=O)(=O)NC(=O)c2ccc3c(c2)N(CC2CCC21)CC1(CCCc2cc(Cl)ccc21)CO3 (centres undefined) + CN1CCN(c2cc(C(=O)Nc3cc4cc(-c5cnn(C)c5)ccc4cn3)ccn2)CC1
5.95: pIC50 (second compound 0.1 µM)
active: viability, T/C [6] 3.46% | viability, T/C [12] 2.36% | viability, T/C [16] 5.75% | viability, T/C [17] 3.04% | viability, T/C [18] 1.3% | viability, T/C [19] 1.87% | viability, T/C [20] 0.6% | viability, T/C [21] 0.97% | viability, T/C [22] 0.6% | viability, T/C [23] 0.3% | viability, T/C [24] 0.24% | viability, T/C [25] 1.99% | viability, T/C [26] 0.97% | viability, T/C [27] 1.2% | viability, T/C [28] 0.98% | viability, T/C [29] 1.26% | viability, T/C [30] 0.58% | viability, T/C [31] 0.93% | viability, T/C [32] 1.11% | viability, T/C [33] 1.01% | viability, T/C [34] 0.62% | viability, T/C [35] 1.39% | viability, T/C [36] 0.26%
5.39: pIC50 (second compound 0.0316 µM)
inactive: viability, T/C [1] 102% | viability, T/C [2] 97.9% | viability, T/C [3] 103% | viability, T/C [4] 87.3% | viability, T/C [5] 64.4% | viability, T/C [7] 87.5% | viability, T/C [8] 91.2% | viability, T/C [9] 74% | viability, T/C [10] 54.3% | viability, T/C [11] 21.4% | viability, T/C [13] 25.6% | viability, T/C [14] 30.4% | viability, T/C [15] 16.9%
> 7.50: pIC50 (second compound 0.316 µM) | pIC50 (second compound 1 µM) | pIC50 (second compound 3.16 µM) | pIC50 (second compound 10 µM)
